Measured values reported in patent publication US20150368230A1, “RADIOLABELED QUINAZOLINE DERIVATIVES” (priority 2013, published 2015).

Key:
[1] = Metabolite analysis in plasma after injection of tracer; type: in vivo, Balb/C mice; conditions: for Parent (%): plasma
Protocol: The mice were sacrificed at 15 (n=4) and 45 (n=4) min post-injection. At these time points, about 1.5 mL of blood was collected via a heart puncture. […] The cartridge was washed with 5 mL of H2O to collect polar radioactive metabolites. Thereafter, the tC2 Sep-Pak cartridge was eluted with 2 mL of MeOH and 1 mL of H2O to collect the mixture of apolar metabolites. […] HPLC was performed on a Dionex Ultimate 3000 system, equipped with a 1 mL loop. As a stationary phase a Phenomenex Gemini C18, 250×10 mm, 5 μm was used.

A549 xenograft [2] = assay: Biodistribution studies, A549 tumor bearing mice; type: in vivo, nude mice (nu/nu); conditions: 5 minutes p.i.
Protocol: (§1) The mice were sacrificed and dissected at 5, 30, 60 and 120 minutes post-injection. Blood, urine, skin, left tumor, right tumor, muscle, heart, lung, liver, kidney and brain were collected, weighed and counted for radioactivity in a Wallac Compugamma 1210 counter (n=3 for each time point). Biodistribution data are expressed as percentage of injected dose per gram (% ID/g) tissue for each organ (FIG. 2).

H1975 xenograft [3] = assay: Biodistribution studies, H1975 tumor bearing mice; type: in vivo, nude mice (nu/nu); conditions: 5 minutes p.i.
Protocol: as §1

HCC827 xenograft = assay: Biodistribution studies, HCC827 tumor bearing mice; type: in vivo, nude mice (nu/nu); conditions: 5 minutes p.i.
Protocol: as §1

[4] = tested on: A549, H1975 or HCC827 xenografts; assay: Biodistribution studies, statements for all investigated tumor types; type: in vivo, nude mice (nu/nu)
Protocol: as §1

A549 xenograft [5] = assay: Dynamic PET imaging, A549 xenograft; type: in vivo, nude mice; conditions: A549 (insensitive), no blocking
Protocol: (§2) Dynamic PET imaging was performed on three cancer xenograft (A549, H1975 and HCC827) lines in nude mice. Each mouse (n=3) carried one tumor of the same cancer xenograft line, which were located on the left or right flank. Imaging was performed for a duration of 120 min using a double-LSO/LYSO layer high-resolution research tomograph (HRRT; CTI/Siemens, Knoxville, Tenn., USA). The mice were anesthetized with 4% and 2% isoflurane in 1 L·min^−1 oxygen for induction and maintenance, respectively. First, for attenuation and scatter correction, a transmission scan was acquired using a 740-MBq two-dimensional (2D) fan-collimated ^137Cs (662 keV) moving point source. […] Positron emission scans were acquired in list mode and rebinned into the following frame sequence: 10×60 s, 4×300 s, and 9×600 s. After 120 min, [^18F]FDG was administered (I.V. ocular plexus) to the mice followed by scanning for another 60 min. Following corrections for decay, dead time, scatter and randoms, scans were reconstructed using an iterative 3D ordered-subsets weighted least-squares analysis (3D-OSWLS). Point source resolution varied across the field of view from approximately 2.3 to 3.2-mm full width at half maximum in the transaxial direction and from 2.5 to 3.4 mm in the axial direction. Post-filtering was not performed after reconstruction.

H1975 xenograft [6] = assay: Dynamic PET imaging, H1975 xenograft; type: in vivo, nude mice; conditions: H1975 (insensitive), no blocking
Protocol: as §2

[7] = PET imaging with cold afatinib added to the tracer injection; type: in vivo, mice; conditions: cold dose of 100 ng afatinib added
Source text: Showing that imaging of the tumor should be done at high specific activity.

P-gp = assay: PET imaging with P-gp blocking by tariquidar

in vivo stability of the tracer ([1]; metabolic profile of table 1): excellent in vivo stability
Parent (%) ([1]; 15 min p.i.): 87.5 ± 0.8%
Parent (%) ([1]; 45 min p.i.): 83.3 ± 1.3%
blood level of the tracer (A549 xenograft [2]): 2.17 % ID/g
blood level of the tracer (H1975 xenograft [3]): 1.59 % ID/g
blood level of the tracer (HCC827 xenograft): 1.56 % ID/g
uptake in the metabolic organs (kidney and liver) ([4]; mouse, in vivo): rapid and high uptake
activity remained in the tumor ([4]; tumors, 120 minutes p.i.): around 1 % ID/g
tumor uptake with cold afatinib co-injected [7]: reduced to background levels
brain uptake (P-gp; P-gp active (no block)): washed out from the brain
brain uptake (P-gp; P-gp blocked with tariquidar): remains in the brain
P-gp substrate status (P-gp; absolute tumor uptake increased when P-gp blocked): substrates
washout after P-gp blocking (P-gp; tumor, tariquidar block): hardly shows any washout
Compound: CN(C)C/C=C/C(=O)Nc1cc2c(Nc3ccc([18F])c(Cl)c3)ncnc2cc1O[C@H]1CCOC1 [[^18F]afatinib, [^18F](S,E)-N-(4-((3-chloro-4-fluorophenyl)amino)-7-((tetrahydrofuran-3-yl)oxy)quinazolin-6-yl)-4-(dimethylamino)but-2-enamide]
uptake in tumor compared to background (A549 xenograft [5]): hardly an increase of uptake in the tumors compared to the background
uptake in tumor compared to background (H1975 xenograft [6]): hardly an increase of uptake in the tumors compared to the background
